Assays:
Human betaherpesvirus 5 [1] = experiment: Cytotoxicity against Human cytomegalovirus (AD169) strain(HCMV); format: functional
Human betaherpesvirus 5 [2] = experiment: Antiviral activity against Human cytomegalovirus (AD169) strain(HCMV); format: functional, organism-based
Human betaherpesvirus 5 [3] = experiment: Antiviral activity against clinical isolates of human origin CMV-strainC; format: functional, organism-based
Human betaherpesvirus 5 [4] = experiment: Antiviral activity against clinical isolates of human origin CMV-strain B; format: functional, organism-based
Human betaherpesvirus 5 [5] = experiment: Antiviral activity against clinical isolates of human origin CMV-strainA; format: functional, organism-based

| IC50 (Human betaherpesvirus 5 [2]) [µM] | SMILES | CC50 (Human betaherpesvirus 5 [1]) [µM] | IC50 (Human betaherpesvirus 5 [3]) [µM] | IC50 (Human betaherpesvirus 5 [4]) [µM] | IC50 (Human betaherpesvirus 5 [5]) [µM] |
| --- | --- | --- | --- | --- | --- |
| 7.9 | O=S1(=O)N=C(OCc2ccccc2)c2ccccc2N1Cc1ccccc1 | > 66 | – | – | – |
| 3.6 | O=C1c2ccccc2N(Cc2cccc(Cl)c2)S(=O)(=O)N1Cc1ccccc1 | > 60 | – | – | – |
| 6.7 | O=C1c2ccccc2N(Cc2ccc(Cl)cc2)S(=O)(=O)N1COCc1ccccc1 | > 56 | – | – | – |
| 4.8 | O=C1c2ccccc2N(Cc2ccccc2Cl)S(=O)(=O)N1Cc1ccccc1 | > 60 | – | – | – |
| 34 | O=C1c2ccccc2N(COCc2ccccc2)S(=O)(=O)N1COCc1ccccc1 | > 57 | – | – | – |
| 18 | O=C1c2ccccc2N(Cc2ccccc2Cl)S(=O)(=O)N1COCc1ccccc1 | > 56 | – | – | – |
| 3.6 | O=C1c2ccccc2N(Cc2ccc(Cl)cc2)S(=O)(=O)N1Cc1ccc(Cl)cc1 | > 60 | – | – | – |
| 5.2 | O=C1c2ccccc2N(Cc2ccccc2)S(=O)(=O)N1Cc1ccccc1 | > 66 | – | – | – |
| 6 | O=C1c2ccccc2N(Cc2ccccc2)S(=O)(=O)N1Cc1ccc(Cl)cc1 | > 60 | – | – | – |
| 3.6 | O=C1c2ccccc2N(Cc2ccccc2Cl)S(=O)(=O)N1Cc1ccccc1Cl | > 60 | – | – | – |
| 12.1 | O=C1c2ccccc2N(Cc2ccccc2)S(=O)(=O)N1Cc1ccccc1Cl | > 60 | – | – | – |

| SMILES | IC50 (Human betaherpesvirus 5 [2]) [µM] | CC50 (Human betaherpesvirus 5 [1]) [µM] | IC50 (Human betaherpesvirus 5 [3]) [µM] | IC50 (Human betaherpesvirus 5 [4]) [µM] | IC50 (Human betaherpesvirus 5 [5]) [µM] |
| --- | --- | --- | --- | --- | --- |
| O=C1c2ccccc2N(Cc2ccc(Cl)cc2)S(=O)(=O)N1Cc1ccccc1 | 3.6 | > 60 | 2.4 | 1.2 | 2.4 |
| Nc1nc2c(ncn2COC(CO)CO)c(=O)[nH]1 [GANCICLOVIR] | 5.9 | > 98 | 3.9 | 3.9 | 5.9 |

From ChEMBL document CHEMBL1131869, “Chlorophenylmethyl benzothiadiazine dioxides derivatives: potent human cytomegalovirus inhibitors” (Bioorg Med Chem Lett, 1999)
